#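 Where inhibition never reached the appropriate level, the endpoint shown equals the highest concentration tested. Otherwise, values were interpolated linearly from a five-concentration, 48-hour dose response in 96-well plates. At the GI50, growth is halved.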 Calls of active or inactive are those of the source. Rule as the data show it: active = GI50 up to about 1.1 µM and inactive = higher.
# Experiments:
# Test in all cases: inhibition of tumour cell growth, NCI panel, 48 h
# [1] = test system: HOP-92
# [2] = test system: SNB-75
# [3] = test system: HOP-62
# [4] = test system: NCI-H23
# [5] = test system: NCI-H522
# [6] = test system: DMS-273
# [7] = test system: SW-620
# [8] = test system: SNB-19
# [9] = test system: U-251
# [10] = test system: LOX IMVI
# [11] = test system: UACC-62
# [12] = test system: A549
# [13] = test system: SN12C
# [14] = test system: OVCAR-5
# [15] = test system: SR
# [16] = test system: HCT-15
# [17] = test system: KM12
# [18] = test system: COLO 205
# [19] = test system: SF-539
# [20] = test system: CAKI-1
# [21] = test system: M14
# [22] = test system: NCI-H226
# [23] = test system: KM-20L2
# [24] = test system: TK-10
# [25] = test system: CCRF-CEM
# [26] = test system: MOLT-4
# [27] = test system: A498
# [28] = test system: ACHN
# [29] = test system: HL-60
# [30] = test system: OVCAR-8
# [31] = test system: SK-MEL-5
# [32] = test system: RXF 393
# [33] = test system: M19-MEL
# [34] = test system: EKVX
# [35] = test system: HCT-116
# [36] = test system: SK-MEL-28
# [37] = test system: OVCAR-4
# [38] = test system: NCI-H460
# [39] = test system: IGROV-1
# [40] = test system: RPMI-8226
# [41] = test system: SF-295
# [42] = test system: OVCAR-3
# [43] = test system: SK-OV-3
# [44] = test system: UO-31
# [45] = test system: HT-29
# [46] = test system: Malme-3M
# [47] = test system: K562
# [48] = test system: SF-268
# [49] = test system: SNB-78
# [50] = test system: HCC 2998
# [51] = test system: UACC-257
# [52] = test system: 786-0
# [53] = test system: SK-MEL-2
# [54] = test system: DLD-1
# [55] = test system: DMS-114
# [56] = test system: XF498
# [57] = test system: LXFL 529
# [58] = test system: PC-3
# [59] = test system: MDA-MB-435
# [60] = test system: MCF7
# [61] = test system: NCI/ADR-RES
# [62] = test system: MDA-MB-231
# [63] = test system: Hs-578T
# [64] = test system: T47D
# [65] = test system: DU-145
# [66] = test system: BT-549
# [67] = test system: MDA-N
compound,measurement,setting,value
COc1cccc(/C=N/C23CC4CC(CC(C4)C2)C3)c1,GI50,[1],> 100 µM (inactive)
same,GI50,[2],55.5 µM (inactive)
same,GI50,[3],> 100 µM (inactive)
same,GI50,[4],> 100 µM (inactive)
same,GI50,[5],> 100 µM (inactive)
same,GI50,[6],> 100 µM (inactive)
same,GI50,[7],> 100 µM (inactive)
same,GI50,[8],> 100 µM (inactive)
same,GI50,[9],> 100 µM (inactive)
same,GI50,[10],> 100 µM (inactive)
same,GI50,[11],> 100 µM (inactive)
same,GI50,[12],> 100 µM (inactive)
same,GI50,[13],> 100 µM (inactive)
same,GI50,[14],> 100 µM (inactive)
same,GI50,[15],> 100 µM (inactive)
same,GI50,[16],> 100 µM
same,GI50,[17],> 100 µM (inactive)
same,GI50,[18],> 100 µM (inactive)
same,GI50,[19],> 100 µM (inactive)
same,GI50,[20],> 100 µM (inactive)
same,GI50,[21],> 100 µM (inactive)
same,GI50,[22],> 100 µM (inactive)
same,GI50,[23],> 100 µM (inactive)
same,GI50,[24],> 100 µM (inactive)
same,GI50,[25],> 100 µM (inactive)
same,GI50,[26],> 100 µM (inactive)
same,GI50,[27],> 100 µM (inactive)
same,GI50,[28],> 100 µM (inactive)
same,GI50,[29],> 100 µM (inactive)
same,GI50,[30],> 100 µM (inactive)
same,GI50,[31],> 100 µM (inactive)
same,GI50,[32],> 100 µM (inactive)
same,GI50,[33],> 100 µM (inactive)
same,GI50,[34],> 100 µM (inactive)
same,GI50,[35],> 100 µM (inactive)
same,GI50,[36],> 100 µM (inactive)
same,GI50,[37],> 100 µM (inactive)
same,GI50,[38],> 100 µM (inactive)
same,GI50,[39],> 100 µM (inactive)
same,GI50,[40],> 100 µM (inactive)
same,GI50,[41],> 100 µM (inactive)
same,GI50,[42],> 100 µM (inactive)
same,GI50,[43],> 100 µM (inactive)
same,GI50,[44],> 100 µM (inactive)
same,GI50,[45],> 100 µM (inactive)
same,GI50,[46],> 100 µM (inactive)
same,GI50,[47],> 100 µM (inactive)
same,GI50,[48],> 100 µM (inactive)
same,GI50,[49],> 100 µM (inactive)
same,GI50,[50],> 100 µM (inactive)
same,GI50,[51],> 100 µM (inactive)
same,GI50,[52],> 100 µM (inactive)
same,GI50,[53],> 100 µM (inactive)
COc1cc(CNc2nc3c(NC(C)=O)cc(C(F)(F)F)cc3nc2-c2ccccc2)cc(OC)c1OC,GI50,[1],17.8 µM (inactive)
same,GI50,[3],> 100 µM (inactive)
same,GI50,[5],> 100 µM (inactive)
same,GI50,[6],> 100 µM (inactive)
same,GI50,[7],> 100 µM (inactive)
same,GI50,[8],> 100 µM (inactive)
same,GI50,[10],> 100 µM (inactive)
same,GI50,[11],39.7 µM (inactive)
same,GI50,[12],> 100 µM (inactive)
same,GI50,[13],> 100 µM (inactive)
same,GI50,[14],> 100 µM (inactive)
same,GI50,[15],> 100 µM (inactive)
same,GI50,[54],> 100 µM (inactive)
same,GI50,[16],> 100 µM
same,GI50,[17],> 100 µM (inactive)
same,GI50,[18],> 100 µM (inactive)
same,GI50,[19],> 100 µM (inactive)
same,GI50,[20],> 100 µM (inactive)
same,GI50,[22],> 100 µM (inactive)
same,GI50,[23],> 100 µM (inactive)
same,GI50,[24],> 100 µM (inactive)
same,GI50,[25],> 100 µM (inactive)
same,GI50,[26],> 100 µM (inactive)
same,GI50,[28],> 100 µM (inactive)
same,GI50,[55],> 100 µM (inactive)
same,GI50,[56],26.5 µM (inactive)
same,GI50,[30],> 100 µM (inactive)
same,GI50,[31],> 100 µM (inactive)
same,GI50,[57],> 100 µM (inactive)
same,GI50,[32],90.4 µM (inactive)
same,GI50,[33],> 100 µM (inactive)
same,GI50,[34],> 100 µM (inactive)
same,GI50,[35],> 100 µM (inactive)
same,GI50,[36],> 100 µM (inactive)
same,GI50,[37],89.5 µM (inactive)
same,GI50,[39],> 100 µM (inactive)
same,GI50,[40],> 100 µM (inactive)
same,GI50,[41],> 100 µM (inactive)
same,GI50,[42],> 100 µM (inactive)
same,GI50,[43],> 100 µM (inactive)
same,GI50,[44],> 100 µM (inactive)
same,GI50,[46],19.6 µM (inactive)
same,GI50,[47],> 100 µM (inactive)
same,GI50,[48],> 100 µM (inactive)
same,GI50,[50],> 100 µM (inactive)
same,GI50,[53],> 100 µM (inactive)
Cn1c(=O)n(CC(Br)CBr)c(=O)n(CC(Br)CBr)c1=O (stereo not drawn),GI50,[1],> 100 µM (inactive)
same,GI50,[2],58.5 µM (inactive)
same,GI50,[3],> 100 µM (inactive)
same,GI50,[4],36 µM (inactive)
same,GI50,[5],28 µM (inactive)
same,GI50,[58],31.8 µM (inactive)
same,GI50,[7],30.9 µM (inactive)
same,GI50,[8],75.7 µM (inactive)
same,GI50,[9],43.3 µM (inactive)
same,GI50,[10],18.4 µM (inactive)
same,GI50,[11],23.3 µM (inactive)
same,GI50,[59],29.9 µM (inactive)
same,GI50,[60],45.8 µM (inactive)
same,GI50,[12],40.3 µM (inactive)
same,GI50,[13],26 µM (inactive)
same,GI50,[61],40.5 µM (inactive)
same,GI50,[14],43.9 µM (inactive)
same,GI50,[15],18.4 µM (inactive)
same,GI50,[62],33.7 µM (inactive)
same,GI50,[16],36.2 µM
same,GI50,[17],48.9 µM (inactive)
same,GI50,[18],21 µM (inactive)
same,GI50,[19],25.3 µM (inactive)
same,GI50,[20],85.3 µM (inactive)
same,GI50,[21],24.3 µM (inactive)
same,GI50,[22],20.2 µM (inactive)
same,GI50,[24],55.5 µM (inactive)
same,GI50,[25],22.7 µM (inactive)
same,GI50,[63],> 100 µM (inactive)
same,GI50,[26],26.3 µM (inactive)
same,GI50,[27],77.4 µM (inactive)
same,GI50,[28],36.6 µM (inactive)
same,GI50,[64],38.7 µM (inactive)
same,GI50,[29],20.4 µM (inactive)
same,GI50,[30],58.7 µM (inactive)
same,GI50,[31],16.5 µM (inactive)
same,GI50,[65],71.3 µM (inactive)
same,GI50,[32],32.8 µM (inactive)
same,GI50,[34],25.2 µM (inactive)
same,GI50,[35],25.9 µM (inactive)
same,GI50,[36],39.7 µM (inactive)
same,GI50,[66],67.9 µM (inactive)
same,GI50,[37],66.2 µM (inactive)
same,GI50,[38],33.4 µM (inactive)
same,GI50,[67],28.8 µM (inactive)
same,GI50,[39],39.9 µM (inactive)
same,GI50,[40],25.1 µM (inactive)
same,GI50,[41],45 µM (inactive)
same,GI50,[42],38.5 µM (inactive)
same,GI50,[43],> 100 µM (inactive)
same,GI50,[44],25.5 µM (inactive)
same,GI50,[45],21.7 µM (inactive)
same,GI50,[46],> 100 µM (inactive)
same,GI50,[47],32.5 µM (inactive)
same,GI50,[48],74.6 µM (inactive)
same,GI50,[50],28.4 µM (inactive)
same,GI50,[51],31.8 µM (inactive)
same,GI50,[52],38.1 µM (inactive)
same,GI50,[53],46.1 µM (inactive)
